Counter-ions that a name gives are not always drawn.
Legend:
[1] = CNS penetration (intravenous bolus or steady-state infusion, brain and blood concentration); assay type: in vivo, rat; conditions: compared with azelastine
Experimental: Compounds are dosed intravenously at a nominal dose level of 1 mg/kg to male CD Sprague Dawley rats. Compounds are formulated in 5% DMSO/45% PEG200/50% water. Blood samples are taken under terminal anaesthesia with isoflurane at 5 min post-dose and the brains are also removed for assessment of brain penetration. Blood samples are taken directly into heparinised tubes. Blood samples are prepared for analysis using protein precipitation and brain samples are prepared using extraction of drug from brain by homogenisation and subsequent protein precipitation. The concentration of parent drug in blood and brain extracts is determined by quantitative LC-MS/MS analysis using compound-specific mass transitions.
A loading dose of the compounds is given to male CD Sprague Dawley rats at a nominal dose level of 0.4 mg/kg. The compounds are then infused intravenously for 4 h at a nominal dose level of 0.1 mg/kg/h. Compounds are formulated in 2% DMSO/30% PEG200/68% water. Serial or terminal blood samples are taken at 0.5, 1.5, 2.5, 3, 3.5 and 4 h post dose. The final blood sample is collected under terminal anaesthesia with isoflurane and the brains are also removed for assessment of brain penetration. Blood samples are taken directly into heparinised tubes. Blood samples are prepared for analysis using protein precipitation and brain samples are prepared using extraction of drug from brain by homogenisation and subsequent protein precipitation. The concentration of parent drug in blood and brain extracts is determined by quantitative LC-MS/MS analysis using compound-specific mass transitions.

[2] = target: T1, human H1 receptor (Homo sapiens, UniProt P35367); assay: Histamine H1 functional antagonist assay (FLIPR): determination of antagonist pA2 and duration; assay type: cell-based; conditions: at one or more time points; compared with azelastine
T1 construct: expressed in transfected cells
T1 sequence (P35367 whole entry): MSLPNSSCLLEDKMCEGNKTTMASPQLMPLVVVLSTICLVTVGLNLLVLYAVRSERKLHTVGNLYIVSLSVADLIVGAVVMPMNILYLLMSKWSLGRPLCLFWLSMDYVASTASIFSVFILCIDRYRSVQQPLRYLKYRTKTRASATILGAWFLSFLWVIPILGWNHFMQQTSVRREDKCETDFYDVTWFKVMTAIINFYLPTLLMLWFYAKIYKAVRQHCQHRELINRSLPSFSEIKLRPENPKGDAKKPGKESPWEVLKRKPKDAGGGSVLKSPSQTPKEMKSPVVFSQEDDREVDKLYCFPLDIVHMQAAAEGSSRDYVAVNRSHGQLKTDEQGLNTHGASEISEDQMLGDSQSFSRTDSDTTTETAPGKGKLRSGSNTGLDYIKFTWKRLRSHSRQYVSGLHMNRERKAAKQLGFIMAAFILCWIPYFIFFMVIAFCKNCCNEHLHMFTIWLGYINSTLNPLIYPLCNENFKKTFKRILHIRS
Experimental: The human H1 receptor is cloned using known procedures described in the literature [Biochem. Biophys. Res. Commun., 201(2):894 (1994)]. Chinese hamster ovary (CHO) cells stably expressing the human H1 receptor are generated according to known procedures described in the literature [Br. J. Pharmacol., 117(6):1071 (1996)].
The histamine H1 receptor expressing CHO cells are seeded into non-coated black-walled clear bottom 96-well tissue culture plates as described above.
Following overnight culture, growth medium is removed from each well, washed with 200 μl phosphate buffered saline (PBS) and is replaced with 50 μl loading dye (250 μM Brilliant Black, 1 μM Fluo-4 diluted in Tyrodes buffer+probenecid (145 mM NaCl, 2.5 mM KCl, 10 mM HEPES, 10 mM D-glucose, 1.2 mM MgCl2, 1.5 mM CaCl2, 2.5 mM probenecid, pH adjusted to 7.40 with NaOH 1.0 M)). Cells are incubated for 45 min at 37° C. The loading buffer is removed and the cells are washed as above, and 90 μl of Tyrodes buffer+probenecid is added to each well. 10 μl of test compound, diluted to the required concentration in Tyrodes buffer+probenecid (or 10 μl Tyrodes buffer+probenecid as a control) is added to each well and the plate is incubated for 30 min at 37° C., 5% CO2.
The plates are then placed into a FLIPR™ (Molecular Devices, UK) to monitor cell fluorescence (λex=488 nm, λEM=540 nm) in the manner described in Sullivan et al., (In: Lambert D G (ed.), Calcium Signaling Protocols, New Jersey: Humana Press, 1999, 125-136) before and after the addition of 50 μl histamine over a concentration range of 1 mM-0.1 nM. The resultant concentration response curves are analysed by non-linear regression using a standard four parameter logistic equation to determine the histamine EC50, the concentration of histamine required to produce a response of 50% of the maximum response to histamine. The antagonist pA2 is calculated using the following standard equation: pA2=log(DR−1)−log [B] where DR=dose ratio, defined as EC50 antagonist-treated/EC50 control and [B]=concentration of antagonist.
To determine the antagonist duration, cells are cultured overnight in non-coated black-walled clear bottom 96-well tissue culture plates, are washed with PBS and are incubated with a concentration of antagonist chosen to give an approximate DR in the range 30-300. Following the 30 min antagonist incubation period, the cells are washed two or three times with 200 μl of PBS and then 100 μl Tyrodes buffer is added to each well to initiate antagonist dissociation. Following incubation for predetermined times, typically 30-270 min at 37° C., the cells are then washed again with 200 μl PBS and are incubated with 100 μl Tyrodes buffer containing Brilliant Black, probenecid and Fluo-4 for 45 min at 37° C., as described above. After this period, the cells are challenged with histamine in the FLIPR™ as described above. The dose ratio at each time point is used to determine the fractional H1 receptor occupancy by the following equation: fractional receptor occupancy=(DR-1)/DR. The decrease in receptor occupancy over time approximates to a straight line and is analysed by linear regression. The slope of this straight line fit is used as an index of the dissociation rate of the antagonist. The dose ratios for antagonist treated cells and for antagonist treated and washed cells at each time point are used to calculate a relative dose ratio (rel DR) which is also used as an index of antagonist duration. Antagonists with long duration of action produce rel DR values close to 1, and antagonists with short duration of action produce rel DR values that approaches the dose ratio value obtained for antagonist treatment alone.

[3] = tested on: histamine-induced congestion; assay: Intranasal histamine challenge, whole body plethysmography; assay type: in vivo; conditions: 24 hours after dosing; compared to azelastine; Guinea Pig whole body plethysmography model (FIG. 3)
Experimental: Female Dunkin-Hartley guinea pigs 150-250 g are sensitised twice daily for 5 days (week 1) with ovalbumin (OVA) and aluminium hydroxide (Al(OH)3 or Alum) in physiological saline, 25 μl/nostril. Solution is made up at 20 μg/ml OVA, 180 mg/ml Alum. During weeks 2 and 3, animals receive 25 μl/nostril of OVA (5 mg/ml) once daily. During Week 4 guinea pigs will be entered into study but are continually sensitized as per weeks 2 and 3 until the day before dosing with compound or vehicle.
Pretreatment with test compound is performed at various times prior to histamine challenge. Efficacy dose-response curves are determined 1 h after dosing whereas duration of action is studied up to 7 days post dose. Test compounds are formulated as solutions in 0.9% sterile saline or suspensions in 0.9% sterile saline/tween80. […]
After the stipulated pre-dose time has been reached, guinea pigs are re-anaesthetised with isoflurane and dosed with either 15 mM histamine or phosphate-buffered saline (PBS), (25 μl per nostril). […] Data are analysed using ANOVA with post-hoc Fishers LSD test (general linear models, Statistica®) and finally Hochberg adjustment. Inhibition of histamine-induced congestion is determined by statistically significant differences between the mean responses of compound pre-treated groups compared to the vehicle pre-treated, histamine-challenged group.

| Structure (SMILES) | CNS penetration [1] | duration of action in the histamine H1 functional antagonist assay [2] | inhibition of nasal congestion [3] |
| --- | --- | --- | --- |
| COc1ccc(Cc2nn(C[C@H]3CCCN3CCCCc3ccc(OCCCN4CCCCCC4)cc3)c(=O)c3ccccc23)cc1 [Example 7, 2-({(2R)-1-[4-(4-{[3-(Hexahydro-1H-azepin-1-yl)propyl]oxy}phenyl)butyl]-2-pyrrolidinyl}methyl)-4-{[4-(methyloxy)phenyl]methyl}-1(2H)-phthalazinone Diformate] | lower CNS penetration than azelastine | longer duration of action than azelastine | – |
| O=c1c2ccccc2c(Cc2ccc(O)cc2)nn1C[C@H]1CCCN1CCCCc1ccc(OCCCN2CCCCCC2)cc1 [Example 8, 2-({(2R)-1-[4-(4-{[3-(Hexahydro-1H-azepin-1-yl)propyl]oxy}phenyl)butyl]-2-pyrrolidinyl}methyl)-4-[(4-hydroxyphenyl)methyl]-1(2H)-phthalazinone] | – | longer duration of action than azelastine | – |
| O=c1c2ccccc2c(Cc2ccc(F)cc2)nn1C[C@H]1CCCN1CCCCc1ccc(OCCCN2CCCCCC2)cc1 [Example 9, 4-[(4-Fluorophenyl)methyl]-2-({(2R)-1-[4-(4-{[3-(hexahydro-1H-azepin-1-yl)propyl]oxy}phenyl)butyl]-2-pyrrolidinyl}methyl)-1(2H)-phthalazinone] | – | longer duration of action than azelastine | – |
| O=c1c2ccccc2c(Cc2ccc(Cl)cc2)nn1C[C@H]1CCCN1CCCOc1ccc2c(c1)CCN(C1CCC1)CC2 [Example 15, 4-[(4-Chlorophenyl)methyl]-2-[((2R)-1-{3-[(3-cyclobutyl-2,3,4,5-tetrahydro-1H-3-benzazepin-7-yl)oxy]propyl}-2-pyrrolidinyl)methyl]-1(2H)-phthalazinone] | – | longer duration of action than azelastine | – |
| O=c1c2ccccc2c(Cc2ccc(Cl)cc2)nn1C1CCCN(CCCOc2ccc3c(c2)CCN(C2CCC2)CC3)CC1 (centres unmarked) [Example 16, 4-[(4-Chlorophenyl)methyl]-2-(1-{3-[(3-cyclobutyl-2,3,4,5-tetrahydro-1H-3-benzazepin-7-yl)oxy]propyl}hexahydro-1H-azepin-4-yl)-1(2H)-phthalazinone Formate Salt] | comparable CNS penetration to azelastine | – | – |
| O=C(NCCN1CCCC(n2nc(Cc3ccc(Cl)cc3)c3ccccc3c2=O)CC1)c1ccc2c(c1)CCN(C1CCC1)CC2 (centres unmarked) [Example 18, N-(2-{4-[4-[(4-Chlorophenyl)methyl]-1-oxo-2(1H)-phthalazinyl]hexahydro-1H-azepin-1-yl}ethyl)-3-cyclobutyl-2,3,4,5-tetrahydro-1H-3-benzazepine-7-carboxamide Diformate Salt] | – | longer duration of action than azelastine | – |
| O=c1c2ccncc2c(Cc2ccc(Cl)cc2)nn1C[C@H]1CCCN1CCCCc1ccc(OCCCN2CCCCCC2)cc1 [Example 23] | – | longer duration of action than azelastine | – |
| O=c1c2ccccc2c(Cc2ccc(Cl)cc2)nn1C[C@H]1CCCN1CCCCc1ccc(OCCCN2CCCCCC2)cc1 [Example 24, 4-[(4-Chlorophenyl)methyl]-2-({(2R)-1-[4-(4-{[3-(hexahydro-1H-azepin-1-yl)propyl]oxy}phenyl)butyl]-2-pyrrolidinyl}methyl)-1(2H)-phthalazinone Free Base] | lower CNS penetration than azelastine | significantly longer duration of action than azelastine | statistically significant inhibition of nasal congestion |

Source: patent US20090105225A1, “2-Substituted 4-Benzylphthalazinone Derivatives as Histamine H1 and H3 Antagonists” (GLAXO GROUP LIMITED, priority 2006, published 2009)
